Laboratory results taken from US9132280B2, “Use of fusarochromanone and its derivatives in the diagnosis and treatment of cancer and other diseases” (University of South Carolina, priority 2008, dated 2015).
“Also recorded” adds a separate entry of the source.

What was measured:
[1] = Experimental physicochemical properties of FC101 (pKa, structural counts; Table 1)
[2] = test system: normal cardiac fibroblasts; experiment: Phototoxic effect under blue light exposure during time-lapse imaging, normal cells; assay type: cell-based, rat
Method: (§1) Cells growing in the Matra-Tek dishes were maintained in an environmental chamber (37° C. and 5% CO2 atmosphere) mounted on the stage of a Zeiss inverted fluorescence microscope equipped with a CARV spinning disk confocal attachment. B16 cells were imaged using a Zeiss 63× oil NA=1.4 apochromatic objective, which gave an image field of 7265.15 μm^2. Cardiac Fibroblasts were imaged using a Zeiss 40× oil 1.0 NA apochromatic objective, which gave an image field of 18,006.85 μm^2. The images were captured using a CCD camera (Hamamatsu ORCA-ER) controlled by Kinetic Imaging Image Acquisition Software (AQM Advance-6) software. All images were recorded at a constant exposure (385 ms) using a DAPI (360/460) filter set, which isolates the natural fluorescence of the compound.
(§2) The cells were maintained in 1 ml of tissue culture medium and allowed equilibrate in the environmental chamber, before imaging of the selected group of cells was initiated. […] The rate of entry of the drug into the cells was determined by high-speed image collection (1 sec interval, 60 exposures per min). The equilibrium-concentration uptake of the drug was determined by slow-speed time-lapse imaging (10 sec intervals, 6 exposures per min) collected for a minimum of 30 minutes. In all experiments, images were recorded prior to addition of the drug to provide a negative control of any auto-fluorescence present in the cells. […]

[3] = Experimental Log D, shaken-flask method (n-octanol/phosphate buffer); assay type: physicochemical; details: pH 7.6
Method: The shaken-flask method with n-octanol/phosphate buffer was used to determine the experimental ionized partition coefficient for FC101^10. Briefly, 50 ml each of n-octanol and 0.1 M phosphate buffer (at appropriate pH) were added to a 125 ml flask and placed on a mechanical shaker at room temperature for 24 hours to ensure saturation of each phase. The phases were then separated by centrifugation (Damon IEC HN-SII) at 2000 rpm for 30 min. After separation, aliquots (1 ml) were taken from each phase and were placed in separate vials. A small sample (45.5 μl) of a stock solution of 10 mM FC101 in water was added to the aqueous phase. […] The n-octanol was separated from the phosphate buffer and the absorbance at 385 nm (Shimadzu UV 1601) was then used to determine the concentration of FC101 in each phase. The partition coefficient was calculated using the following equation: Log10 D=([FC101charged+uncharged]oct[FC101charged+uncharged]buf) Experimental Log P for FC101
The shaken-flask method with n-octanol/phosphate buffer was used to determine the experimental ionized partition coefficient for FC101^10. […] The n-octanol was separated from the phosphate buffer and the absorbance at 385 nm (Shimadzu UV 1601) was then used to determine the concentration of FC101 in each phase. […]

[4] = Experimental Log P, shaken-flask method (n-octanol/water adjusted to pH 10); assay type: physicochemical
Method: The shaken-flask method was also used to determine the experimental non-ionized partition coefficient for FC101. The same procedure used in the experimental determination of Log D for FC101 was used to determine the Log P with the exception that double-distilled water adjusted to pH 10 with 1 mM NaOH was used instead of the phosphate buffer. The log P was calculated using: Log10 P=Log10([FC101uncharged]oct/[FC101uncharged]wat) Imaging of Drug Uptake: […]

B16 melanoma cells [5] = experiment: Confocal time-lapse fluorescence imaging of drug uptake (IOD) in B16 melanoma cells; assay type: cell-based, mouse; details: 400 nM
Method: as §1, §2

[6] = test system: normal cardiac fibroblasts; experiment: Confocal time-lapse fluorescence imaging of drug uptake (IOD) in normal cardiac fibroblasts; assay type: cell-based, rat; details: 400 nM
Method: as §1, §2
FC101 is a naturally fluorescent molecule and its movements, accumulation and distribution within living cells can be followed and analyzed in real-time or by time-lapse imaging. Cellular uptake of the drug was analyzed using the integrated morphometry subroutine of MetaMorph 6.1 (MDS Analytical Technologies). […] The drug fluorescence in the cytoplasm of the cells was thresholded as a region of interest and the integrated optical density (IOD) of the drug fluorescence was measured for all cells in the field at each time point. Values of image brightness, contrast and gamma function were kept constant for all image measurements of drug fluorescence. […]

B16 melanoma cells [7] = experiment: Phototoxic effect under blue light exposure during time-lapse imaging, transformed cells; assay type: cell-based, mouse; details: transformed cells loaded with FC101
Method: as §1, §2

B-16 melanoma cells = experiment: Cell growth inhibition, MTT assay; assay type: cell-based, mouse; details: B-16 melanoma cells compared to normal cardiac fibroblasts
Method: Cells were plated in a 96 well format containing 100 μl per well of appropriate media at a density of 2.5×10^4 cells/ml, and incubated at 37° C. with 5% CO2. After a 24 h attachment period, the cells were treated in sextuplicate with 100 μl per well of varying concentrations (0 to 10 μM) of FC101. Final volume in each well was 200 μl. Cell proliferation was then determined by the MTT assay after 48 hr incubation period^8. Briefly, 20 μl of a 5 mg/ml solution of MTT (dissolved in HBS) was added to each well. After 4.5 hr incubation at 37° C., the media were then removed and the insoluble mitochondrial-converted dye was solubilized in 100 μl of DMSO. The plates were placed on a shaker for 30 min to ensure that all of the dye was in solution and then read on a (Spectra Max plus 384, Molecular Devices) microplate reader at […]. The background absorbency at 640 nM was subtracted from the 570 nM value before calculating the GI50.

## CC1(C)CC(=O)c2c(ccc(C(=O)CC(N)CO)c2N)O1 (racemic) [FC101, 5-amino-2,2-dimethyl-6-[3′-(R,S)amino-4′-hydroxy-butan-1-one]-2,3-dihydro-4H-1-benzopyran-4-one]
[1]
  Hydrogen Bond Acceptors: 6
  Hydrogen Bond Donors: 5
[1]; amino group on C-3 of the side chain
  pKa: 8.6
[2]
  Cell death (phototoxic effect) on blue light exposure: do not exhibit this effect; also recorded: ineffectiveness
[3]
  Log10 D7.6: 0.38
[4]
  Log10 P: 1.62
B16 melanoma cells [5]; 10 sec after addition
  Uptake of FC101 (intracellular fluorescence): immediately entered the cells
B16 melanoma cells [5]; 20 min after addition
  Uptake of FC101 (intracellular fluorescence): stable with no decrease in intracellular drug fluorescence
[6]; 10 sec after addition (less than a minute)
  Uptake of FC101 (intracellular fluorescence): No incorporation; also recorded: no uptake of FC101
[6]; 4 min after addition
  Uptake of FC101 (intracellular fluorescence): minimal increase in cytoplasmic fluorescence
[6]; 20 min after addition
  Uptake of FC101 (intracellular fluorescence): significant increase in intracellular fluorescence
B16 melanoma cells [7]
  Cell death (phototoxic effect) on blue light exposure: undergo cell death
B-16 melanoma cells
  Inhibition of cell growth, tumorigenic versus normal cells: preferential inhibition of tumorigenic B-16 melanoma cells
